# Read-outs that look alike come from different tables or passages of the source.
# What was measured:
# [1] = tested on: U-2 OS cells; test: S/G2-phase cell cycle shift from median Hoechst 33342 intensity (trapping-like phenotype); format: cell-based, human; details: for S/G2 enrichment in words: median Hoechst intensity
# [2] = tested on: U-2 OS cells; details: 24 h PARPi
# [3] = target: T1, PARP2 L269A-mCherry (Homo sapiens, UniProt Q9UGN5, L282A); test: cell-based; format: cell-based
# [4] = tested on: PARP2; details: cited from earlier work
# [5] = tested on: PARP1; details: cited from earlier work
# [6] = target: T1, PARP2 L269A-mCherry; details: 24-h PARPi treatment
# [7] = tested on: U-2 OS cells; test: cells; details: Homo sapiens, U2OS, 24 h
# [8] = tested on: PARP2; details: biophysical measures; ref [26]; cited from earlier work
# [9] = tested on: PARP2; set-up: method as in PMID 36961901; details: reported; ref [23]; cited from earlier work
# [10] = tested on: PARP1; details: reported value, footnote b: cell-based assay; literature-derived, no reference given; cited from earlier work
# [11] = tested on: PARP2; details: reported value, footnote b: cell-based assay; literature-derived, no reference given; cited from earlier work
# [12] = target: PARP2 (Homo sapiens, UniProt Q9UGN5); details: 10 μM olaparib, CCRF-CEM lysate, 37-70 °C
# [13] = target: T1, PARP2 L269A-mCherry; details: shNT and shHPF1 cells, 24 h
# [14] = target: T1, PARP2 L269A-mCherry; format: cell-based; details: 10 μM, 16 h; hit = statistically significant (p < 0.05)
# [15] = median Hoechst intensity change, 24 h PARPi gradient, PARP1/2 biosensor U-2 OS cells, read-out: S/G2 shift EC50
# [16] = PARP2 L269A-mCherry EC50, CeTEAM stabilization, live U-2 OS dual biosensor cells, 24 h PARPi gradient, n = 3
# [17] = Homo sapiens, U2OS, 24 h, read-out: S/G2 shift EC50
# [18] = reported value, footnote a: biochemical assay, literature-derived, no reference given, read-out: PARP2 IC50
# [19] = reported value, footnote a: biochemical assay, literature-derived, no reference given, read-out: PARP1 IC50
# [20] = CeTEAM stabilization, live U-2 OS dual biosensor cells, 24 h PARPi gradient, n = 3, read-out: PARP2 L269A-mCherry EC50
# [21] = read-out: S/G2 shift EC50, shHPF1
# [22] = read-out: S/G2 shift EC50, shNT
# [23] = Homo sapiens, U2OS, 24 h, read-out: S/G2 shift EC50 (text)
# T1 sequence (Q9UGN5 other isoform, or with tags, fused parts or gaps L269A): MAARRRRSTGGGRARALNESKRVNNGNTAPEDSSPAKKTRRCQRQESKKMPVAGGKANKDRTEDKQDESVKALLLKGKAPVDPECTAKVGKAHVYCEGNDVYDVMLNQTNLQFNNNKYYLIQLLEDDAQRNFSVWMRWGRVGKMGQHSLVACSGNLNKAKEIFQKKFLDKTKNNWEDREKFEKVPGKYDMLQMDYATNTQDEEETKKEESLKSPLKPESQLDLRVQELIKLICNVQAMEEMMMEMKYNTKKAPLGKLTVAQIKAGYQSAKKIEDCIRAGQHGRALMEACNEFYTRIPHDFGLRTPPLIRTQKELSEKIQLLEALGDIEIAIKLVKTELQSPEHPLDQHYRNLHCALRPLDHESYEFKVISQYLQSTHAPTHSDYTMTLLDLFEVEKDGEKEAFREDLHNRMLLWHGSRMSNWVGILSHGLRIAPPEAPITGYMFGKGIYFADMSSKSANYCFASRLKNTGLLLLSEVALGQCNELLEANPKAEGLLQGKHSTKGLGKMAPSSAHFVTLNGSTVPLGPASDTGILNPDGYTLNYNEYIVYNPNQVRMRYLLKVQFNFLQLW
# Chain of PARP2 (Homo sapiens, UniProt Q9UGN5) (Q9UGN5 whole entry): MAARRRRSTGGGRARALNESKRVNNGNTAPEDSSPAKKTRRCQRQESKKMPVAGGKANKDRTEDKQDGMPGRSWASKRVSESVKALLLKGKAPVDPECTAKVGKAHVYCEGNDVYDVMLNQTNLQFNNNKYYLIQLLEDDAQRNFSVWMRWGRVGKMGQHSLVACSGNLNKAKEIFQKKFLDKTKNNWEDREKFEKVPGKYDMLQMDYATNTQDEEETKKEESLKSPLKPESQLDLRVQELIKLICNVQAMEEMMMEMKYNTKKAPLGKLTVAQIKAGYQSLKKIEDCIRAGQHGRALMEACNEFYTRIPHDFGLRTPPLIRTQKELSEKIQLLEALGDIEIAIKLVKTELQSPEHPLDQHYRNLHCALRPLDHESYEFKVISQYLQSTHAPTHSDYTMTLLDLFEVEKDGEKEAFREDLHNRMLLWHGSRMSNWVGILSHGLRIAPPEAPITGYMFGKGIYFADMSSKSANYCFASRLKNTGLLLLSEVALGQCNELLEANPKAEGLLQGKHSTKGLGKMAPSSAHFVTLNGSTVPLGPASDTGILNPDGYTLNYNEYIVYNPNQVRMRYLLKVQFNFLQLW
compound,measurement,setting,value
C[C@]1(c2nc3c(C(N)=O)cccc3[nH]2)CCCN1 [Veliparib],EC50,[1]; [15],528 nM
same,EC50,"[2]; read-out: S/G2 shift EC50, shHPF1, HPF1 knockdown",55 nM
same,EC50,"[2]; read-out: S/G2 shift EC50, shNT, control hairpin shNT",709 nM
C[C@]12CCCN1CC1=NNC(=O)c3cc(F)cc4[nH]c2c1c34 [Pamiparib],EC50,[3]; [16],1.47 nM
same,EC50,[1]; [17],2.96 nM
same,IC50,[4]; [18],0.5 nM
"NC(=O)c1cc(F)cc2c1C(=O)N(C1CCN(C3CCC(F)(F)CC3)CC1)C2 [NMS-P118, 2-[1-(4,4-Difluorocyclohexyl)piperidin-4-yl]-6-fluoro-3-oxo-2,3-dihydro-1H-isoindole-4-carboxamide]",EC50,[1]; [17],5880 nM
same,IC50,[5]; [19],9 nM
same,IC50,[4]; [18],1390 nM
Cn1cccc1/C=C1\C(=O)NC(=O)c2ccccc21 [BYK204165],EC50,[3]; [20],1670 nM
same,IC50,[4]; [18],4170 nM
"NC(=O)c1cccc2cn(-c3ccc([C@@H]4CCCNC4)cc3)nc12 [Niraparib, 2-{4-[(3S)-piperidin-3-yl]phenyl}-2H-indazole-7-carboxamide]",PARP2 L269A-mCherry stabilization by Western blot,[6],stabilized PARP2 L269A significantly worse than PARP1 L713F
same,EC50,[7]; [21],1.74 nM
same,EC50,[7]; [22],7.85 nM
same,Binding to PARP2 worse than to PARP1,[8],~50 fold
CNCc1ccc(-c2[nH]c3cc(F)cc4c3c2CCNC4=O)cc1 [Rucaparib],EC50,[1]; [17],23.7 nM
O=C(c1cc(Cc2n[nH]c(=O)c3ccccc23)ccc1F)N1CC(CNC2CC2)C1 [Venadaparib],EC50,[3]; [16],5.94 nM
same,EC50,"[3]; PARP2 L269A-mCherry stabilization EC50, live-cell CeTEAM, 24 h",5.94 nM
same,EC50,[1]; [17],197 nM
same,IC50,"[5]; biochemical inhibition data, ref [30], [31], read-out: Biochemical inhibition of PARP1",0.8 nM
same,IC50,"[4]; biochemical inhibition data, ref [30], [31], read-out: Biochemical inhibition of PARP2",3 nM
CCc1cc2ncc(CN3CCN(c4ccc(C(=O)NC)nc4)CC3)cc2[nH]c1=O [AZD5305],EC50,[1]; [17],60.7 nM
same,EC50,[1]; [23],~61 nM
same,IC50,[4]; [18],1400 nM
NC(=O)c1cccc2nc(-c3ccc([C@@H]4CCCN4)cc3F)[nH]c12 [A-966492],EC50,[1]; [17],41.6 nM
same,IC50,[10],1 nM
same,IC50,[11],1.5 nM
CN(C)CC(=O)Nc1ccc2[nH]c(=O)c3ccccc3c2c1 [PJ34],PARP2 cellular EC50 worse than reported IC50,[3]; CeTEAM EC50 compared to reported IC50,> 10 fold
same,EC50,[1]; [15],3750 nM
same,IC50,[5]; [19],110 nM
O=C(c1cc(Cc2n[nH]c(=O)c3ccccc23)ccc1F)N1CCN(C(=O)C2CC2)CC1 [Olaparib],EC50,[1]; [17],25.7 nM
same,Endogenous PARP2 stability by CETSA,[12],negligible shifts
same,IC50,[4]; [18],1 nM
same,EC50,[7]; [21],1.89 nM
same,EC50,[7]; [22],14.4 nM
NC(=O)c1ccc(I)c([N+](=O)[O-])c1 [Iniparib],PARP2 L269A-mCherry stabilization in words,"[3]; concentration gradient, 24 h",inactive
same,PARP2 L269A-mCherry biosensor response irrespective of HPF1 levels,[13],unaffected
Cc1nc(Nc2[nH]nc3c2CN(C(=O)N[C@H](CN(C)C)c2ccccc2)C3(C)C)c2sccc2n1 [PF-3758309],PARP2 L269A-mCherry abundance change versus DMSO control,[14],also affected PARP2 L269A-mCherry
O=C(Nc1c[nH]nc1-c1nc2ccc(CN3CCOCC3)cc2[nH]1)NC1CC1 [AT9283],PARP2 L269A-mCherry abundance change versus DMSO control,[14],modest but significant effect
CN(C)Cc1ccc(-c2nc3cccc4c3n2CCNC4=O)cc1 [AG14361],EC50,[3]; [16],84 nM
same,EC50,[1]; [17],1120 nM
same,IC50,[10],14 nM
O=C(c1cc(Cc2n[nH]c(=O)c3ccccc23)ccc1F)N1CCn2nc(C(F)(F)F)nc2C1 [Fluzoparib],EC50,[3]; [16],27.3 nM
same,EC50,[1]; [17],46300 nM
"NC(=O)c1cccc(N)c1 [3-AB, 3-aminobenzamide]",S/G2 enrichment in words,[1]; 24 h,no observable activity
O=C(c1cc(Cn2c(=O)[nH]c(=O)c3c(F)cccc32)ccc1F)N1CCN(c2ncccn2)CC1 [Senaparib],EC50,[3]; PARP2 L269A-mCherry EC50,5.26 nM
same,EC50,[3]; PARP2 L269A-mCherry stabilization EC50,5.3 nM
same,EC50,[1]; [17],0.398 nM
same,EC50,[1]; [23],0.4 nM
same,IC50,[5]; [19],0.48 nM
same,IC50,[4]; [18],1.6 nM
"Oc1cccc2c(O)nccc12 [1,5-Isoquinolinediol]",EC50,[3]; PARP2 L269A-mCherry EC50,1000 nM
Cc1cc(Nc2nc(N[C@@H](C)c3ccc(F)cc3)c(C#N)cc2F)[nH]n1 [AZ960],PARP2 L269A-mCherry abundance change versus DMSO control,[14],also affected PARP2 L269A-mCherry
CNCc1ccc(-c2cc3cc(F)cc(C(N)=O)c3o2)cc1 [Mefuparib],EC50,[3]; [16],91.6 nM
same,EC50,[1]; [17],2.36 nM
same,IC50,[5]; [19],3.2 nM
same,IC50,[4]; [18],1.9 nM
O=c1[nH]nc2c3c(cccc13)N=C(CN1Cc3ccccc3C1)N2 [E7449],EC50,[1]; [15],3970 nM
CC(C)(O)c1ccc(-c2nc3c(F)cc(F)cc3c(=O)[nH]2)cc1 [Tankyrase-IN-2],EC50,[3]; [20],13200 nM
same,S/G2 enrichment in words,[1]; 24 h,no observable activity
same,IC50,[5]; [19],710 nM
N#Cc1cccnc1N1CCN(C(=O)c2cccc(Cc3n[nH]c(=O)c4ccccc34)c2)CC1 [AZ9482],EC50,[1]; [17],0.351 nM
same,EC50,[1]; [23],0.35 nM
same,IC50,[11],1 nM
bisindolylmaleimide I,PARP2 L269A-mCherry abundance change versus DMSO control,[14],significantly decreased
O=c1[nH]c(SCCN2CCN(c3ccccn3)CC2)nc2ccccc12 [MC2050],EC50,[3]; [20],2500 nM
same,IC50,[5]; [19],9.3 nM
same,IC50,[4]; [18],549 nM
COC1CCN(C(=O)c2cc(Cc3n[nH]c(=O)c4ccccc34)ccc2F)CC1 [AZD2461],EC50,[3]; [16],36.3 nM
same,EC50,[1]; [17],146 nM
same,IC50,[5]; [19],5 nM
same,IC50,[4]; [18],2 nM
Cn1ncnc1[C@H]1c2n[nH]c(=O)c3cc(F)cc(c23)N[C@@H]1c1ccc(F)cc1 [Talazoparib],EC50,[1]; [17],0.278 nM
same,EC50,[1]; [23],0.28 nM
same,EC50,[7]; [21],0.09 nM
same,EC50,[7]; [22],0.29 nM

# From publication PMC11986510, “Duplexed CeTEAM drug biosensors reveal determinants of PARP inhibitor selectivity in cells” (The Journal of Biological Chemistry, 2025)
